# Measurements as given in US20220117972A1, “USE OF PPAR-DELTA AGONISTS IN THE TREATMENT OF MITOCHONDRIAL MYOPATHY” (Reneo Pharmaceuticals, Inc., priority 2019, published 2022).
# How the values were obtained:
# rat muscle cell lines = assay: fatty acid oxidation in rat muscle cell line; type: cell-based; conditions: in vitro
# PGC1, CPT1b expression = assay: in vivo gene expression in mouse muscle, second study (time course); conditions: male C57BL/6 mice, 30 mg/kg once daily, at 48 hrs
# Procedure: In a second study, male C57BL/6 mice were dosed once daily for four consecutive days. On the first day of treatment all mice in each group received a single dose of either the vehicle or Compound 1 at 30 mg/kg. Following the dose administration on the first day, five mice from each group were anesthetized and euthanized at each of the following time points: 1, 2, 4, 8, 24, 48, 72 and 96 hours. Animals left after the time point 24 hours received the second dose. Animals left after the time point 48 hours received the third dose. Animals left after the time point 72 hours received the fourth dose. Mice designated for time point 96 hours were euthanized on day 5.
# PPARγ = target: T1, PPARγ (Macaca mulatta, UniProt O18924); assay: PPAR receptor transactivation assay, monkey PPARγ; type: cell-based
# T1 construct: expressed in transfected cells; host or cells: Jump-In GripTite HEK293
# T1 sequence (O18924 238-503 limits assumed): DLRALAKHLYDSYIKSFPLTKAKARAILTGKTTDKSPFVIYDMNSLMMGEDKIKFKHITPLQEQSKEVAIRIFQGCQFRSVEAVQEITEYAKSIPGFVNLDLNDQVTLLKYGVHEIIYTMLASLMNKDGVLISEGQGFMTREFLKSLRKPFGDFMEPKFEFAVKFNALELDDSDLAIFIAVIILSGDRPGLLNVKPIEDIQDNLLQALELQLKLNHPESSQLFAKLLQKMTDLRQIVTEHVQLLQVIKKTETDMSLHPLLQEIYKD
# Procedure: (§1) The genes of interest were synthesized and cloned into an appropriate Jump-In™ retargeting vector following the User Guide of the Jump-In™ T-REx™ HEK293 Retargeting Kit (ThermoFisher Catalog No A15008). For example, the vector will be used to transfect and retarget the Jump-In™ HEK293 GripTite™ parental cell line. Stable pools will be antibiotic-selected for about 21 days and tested for target gene expression by functional assay.
# (§2) Jump-In™ GripTite™ HEK293 parental cells were plated at 60-80% confluency in a T-75 flask in growth medium without antibiotics and transfected with a 1:1 ratio of expression construct and R4 integrase expression construct (20 μg DNA total) using Lipofectamine® LTX (50 μL) and PLUS™ Reagent (20 μL). Following a 48 hours incubation, cells were selected with 600 μg/mL Geneticin® and 10 μg/mL Blasticidin for ˜21 days in growth medium.
# Jump-In™ GripTite™ HEK293 rPPAR Alpha, Delta or Gamma UAS-bla-Gal4 cell pools were plated in a 384-well plate format (20,000 cells per well) in OptiMeM without FBS in replicates (n=4). […] After 16 hours, the cells were loaded with LiveBLAzer®, a fluorescent BLA substrate that gives a blue/green readout of expressing/non-expressing cells, respectively. The blue/green readout was measured on a fluorescent plate reader (Tecan Safire II).
# [1] = system: PPARδ regulated genes (CPT1b, PDK4, PGC-1α); assay: in vivo gene expression in mouse muscle, 7-day study; conditions: male C57BL/6 mice, oral 30 mg/kg once daily 7 days, quadriceps muscle 4 h after final dose
# Procedure: Male C57BL/6 mice were administered an oral dose of Compound 1 at 30 mg/kg, once daily for 7 consecutive days. Four hours following the final dose administration on day 7, all mice were euthanized, and two samples of quadriceps muscle were dissected from the right and left limbs.
# PPARδ = target: T2, PPARδ (Mus musculus, UniProt P35396); assay: PPAR receptor transactivation assay, mouse PPARδ; type: cell-based
# T2 construct: expressed in transfected cells; host or cells: Jump-In GripTite HEK293
# T2 sequence (P35396 210-438 limits assumed): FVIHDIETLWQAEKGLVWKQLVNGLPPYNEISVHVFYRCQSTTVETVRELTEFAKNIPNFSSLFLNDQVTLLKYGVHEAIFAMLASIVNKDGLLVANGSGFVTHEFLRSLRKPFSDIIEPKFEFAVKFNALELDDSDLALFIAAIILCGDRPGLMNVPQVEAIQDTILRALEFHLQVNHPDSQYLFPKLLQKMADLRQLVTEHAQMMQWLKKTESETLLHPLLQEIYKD
# LXRβ = target: T3, LXRβ (Homo sapiens, UniProt P55055); assay: nuclear receptor LXRβ activity; type: cell-based
# T3 sequence (P55055 1-460): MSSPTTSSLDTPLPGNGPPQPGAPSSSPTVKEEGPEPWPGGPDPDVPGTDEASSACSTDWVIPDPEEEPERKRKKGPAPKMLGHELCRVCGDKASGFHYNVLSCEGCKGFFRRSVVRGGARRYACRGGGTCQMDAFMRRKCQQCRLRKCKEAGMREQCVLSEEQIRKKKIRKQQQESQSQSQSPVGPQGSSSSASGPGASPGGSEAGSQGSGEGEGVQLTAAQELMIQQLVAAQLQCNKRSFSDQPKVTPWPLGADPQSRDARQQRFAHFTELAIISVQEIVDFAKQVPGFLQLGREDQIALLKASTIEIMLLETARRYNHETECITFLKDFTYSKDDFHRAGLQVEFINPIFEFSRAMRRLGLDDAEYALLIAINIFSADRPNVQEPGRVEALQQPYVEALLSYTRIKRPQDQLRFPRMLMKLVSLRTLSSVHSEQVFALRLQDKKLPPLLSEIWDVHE
# hPPARδ = target: T4, hPPARδ (Homo sapiens, UniProt Q03181); assay: PPAR receptor transactivation assay, human PPARδ; type: cell-based
# T4 construct: expressed in transfected cells; host or cells: Jump-In GripTite HEK293
# T4 sequence (Q03181 211-439 limits assumed): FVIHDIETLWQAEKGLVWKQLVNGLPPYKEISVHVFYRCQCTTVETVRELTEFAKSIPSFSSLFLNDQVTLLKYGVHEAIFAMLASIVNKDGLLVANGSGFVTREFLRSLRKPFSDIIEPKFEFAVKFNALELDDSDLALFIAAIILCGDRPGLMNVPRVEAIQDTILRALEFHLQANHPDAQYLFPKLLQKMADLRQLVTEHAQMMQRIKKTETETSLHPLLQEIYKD
# Procedure: Compound 1 was tested on all three human PPAR subtypes (hPPAR): hPPARα, hPPARγ, and hPPARδ. All assays were repeated at least three times for each subtype.
# as §1, §2
# Jump-In™ GripTite™ HEK293 rPPAR Alpha, Delta or Gamma UAS-bla-Gal4 cell pools were plated in a 384-well plate format (20,000 cells per well) in OptiMeM without FBS in replicates (n=4). Cells were allowed to adhere for 8 hours before addition of Compound 1 (1 mM top concentration, 3-fold dilutions, 10-point titration). After 16 hours, the cells were loaded with LiveBLAzer®, a fluorescent BLA substrate that gives a blue/green readout of expressing/non-expressing cells, respectively. The blue/green readout was measured on a fluorescent plate reader (Tecan Safire II).
smiles,measurement,setting,value
"Cc1cc(OC/C=C(/c2ccc(F)cc2)c2ccc(C#CCN3CCOCC3)cc2)ccc1OCC(=O)O [Compound 1, (E)-[4-[3-(4-Fluorophenyl)-3-[4-[3-(morpholin-4-yl)propynyl]phenyl]allyloxy]-2-methyl-phenoxy]acetic acid]",fatty acid oxidation,rat muscle cell lines,dose-dependent increase
same,expression of CPT1b,"PGC1, CPT1b expression",increased the expression
same,expression of PGC1,"PGC1, CPT1b expression",increased the expression
same,EC50,PPARγ,> 1000 nM
same,"expression patterns of PPARδ regulated genes (CPT1b, PDK4, PGC-1α)",[1],altered the expression patterns
same,EC50,PPARδ,240 nM
same,activity on the nuclear receptor LXRβ,LXRβ,did not show any
same,EC50,hPPARδ; Human PPARδ,31 nM
same,selectivity for PPARδ over PPARα and PPARγ,"hPPARδ; in humans, monkey, and mouse",significantly greater selectivity
same,agonist type at PPARδ,hPPARδ; in some cases,full agonist
